The target of one experiment is T1, pYStat3C542S (Homo sapiens, UniProt P40763, C542S).
T1 construct: made in house; host or cells: E. coli BL21(DE3) TKB1 (inducible tyrosine kinase)
The experiment in a line: EMSA with purified mutant pYStat3C542S. Type of experiment: biochemical. As to conditions: 3 μM H182, 30 min. From the text:
(§1) This construct was used to generate the mutants, Stat3C328A, Stat3C426A, Stat3C468A, and Stat3C542S, as described in detail in Supplementary Information “Methods”.
(§2) The expression of un-phosphorylated and tyrosine phosphorylated His-tagged recombinant wtStat3 and mutant Stat3 proteins in BL21 (DE3) bacterial cells is described in detail in Supplementary Information “Methods”.
(§3) Given the MS data, we conducted site-directed mutagenesis analysis for the effects of Cys mutations (Cys-to-Ala or Cys-to-Ser mutations) on the inhibitory activities or potencies of the compounds. […]
(§4) In another case, the nuclear extract was pre-incubated with the radiolabeled probe for 30 min at 30 °C prior to incubation with increasing concentration of H182 at room temperature for 30 min and subjecting to EMSA analysis. Bands corresponding to Stats DNA- binding activities were scanned and quantified using ImageJ and plotted as a percentage of control (vehicle) against the concentration of the inhibitor, from which the IC50 values were derived . […]
(§5) These studies were performed as previously reported using the v-Src -transformed NIH3T3/v-Src fibroblasts [1 -5] . […] Luciferase activity was normalized to total protein concentration of cell lysate, which was determined by Bradford assay (Bio-Rad, Hercules, CA) . […]

Another experiment concerns the target T2, wtpYStat3 (Homo sapiens, UniProt P40763).
T2 construct: made in house; host or cells: E. coli BL21(DE3) TKB1 (inducible tyrosine kinase)
The experiment in a line: EMSA with purified wild-type pYStat3. To be noted: 3 μM H182, 30 min. Type of experiment: biochemical.
Source text: as §1, §2, §3, §4, §5

Molecules are shown by their SMILES.

T2 sequence (P40763 127-711): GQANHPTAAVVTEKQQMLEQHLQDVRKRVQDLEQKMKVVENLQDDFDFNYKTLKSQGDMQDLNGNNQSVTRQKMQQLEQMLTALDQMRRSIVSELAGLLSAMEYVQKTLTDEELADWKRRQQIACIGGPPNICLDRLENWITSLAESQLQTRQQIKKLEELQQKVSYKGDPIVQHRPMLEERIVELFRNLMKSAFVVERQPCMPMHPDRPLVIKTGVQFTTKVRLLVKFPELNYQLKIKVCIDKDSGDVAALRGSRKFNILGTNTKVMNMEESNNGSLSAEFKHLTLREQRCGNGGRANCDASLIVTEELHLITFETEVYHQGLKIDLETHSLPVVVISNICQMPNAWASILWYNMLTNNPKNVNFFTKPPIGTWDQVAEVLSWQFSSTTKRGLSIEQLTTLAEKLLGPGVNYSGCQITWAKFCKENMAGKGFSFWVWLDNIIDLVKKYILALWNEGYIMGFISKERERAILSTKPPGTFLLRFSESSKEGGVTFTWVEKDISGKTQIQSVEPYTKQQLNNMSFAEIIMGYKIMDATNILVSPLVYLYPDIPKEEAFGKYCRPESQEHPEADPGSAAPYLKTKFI
T1 sequence (P40763 127-711 C542S): as the sequence (P40763 127-711) above, with C416S counted along it

In the case of `O=C([C@H]1CCN1S(=O)(=O)c1c(F)c(F)c(F)c(F)c1F)N(Cc1ccc(C2CCCCC2)cn1)c1ccc2c(=O)[nH]ncc2c1` [Compound H182], the “Effect on DNA-binding activity of pYStat3C542S” value on pYStat3C542S is “strong inhibition”. For the same compound, the “Effect on DNA-binding activity of wtpYStat3” value at wtpYStat3 is “strong inhibition”.

The record behind these values is publication PMC9867837 (Cancer letters, 2022).
